# Patent US20230036854A1, “HETEROCYCLIC SPIRO-COMPOUNDS AS AM2 RECEPTOR INHIBITORS” (THE UNIVERSITY OF SHEFFIELD, priority 2018, published 2023)
# Biological target: T1, AM2 receptor (1321N1 cells transfected with CALCRL+RAMP3) (Homo sapiens, UniProt O60896+Q16602)
# T1 construct: host or cells: 1321N1 cells
# Assay: AM2 receptor inhibition, LANCE cAMP agonist-antagonist competition assay
# Type: cell-based
# Conditions: inhibition of AM induced cAMP activation, read-out: AM2 D2 protocol: pIC50 (converted)
# In short: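 cAMP was quantified by LANCE TR-FRET after an EC50 challenge with adrenomedullin (15 min, room temperature) in CALCRL+RAMP3-transfected 1321N1 cells (2500/well) that had first been exposed to compound for 30 min. Buffer was pH 7.4 HBSS with HEPES and BSA. Forskolin defined 100% stimulation and vehicle 0%.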
# T1 sequence (Q16602 23-461): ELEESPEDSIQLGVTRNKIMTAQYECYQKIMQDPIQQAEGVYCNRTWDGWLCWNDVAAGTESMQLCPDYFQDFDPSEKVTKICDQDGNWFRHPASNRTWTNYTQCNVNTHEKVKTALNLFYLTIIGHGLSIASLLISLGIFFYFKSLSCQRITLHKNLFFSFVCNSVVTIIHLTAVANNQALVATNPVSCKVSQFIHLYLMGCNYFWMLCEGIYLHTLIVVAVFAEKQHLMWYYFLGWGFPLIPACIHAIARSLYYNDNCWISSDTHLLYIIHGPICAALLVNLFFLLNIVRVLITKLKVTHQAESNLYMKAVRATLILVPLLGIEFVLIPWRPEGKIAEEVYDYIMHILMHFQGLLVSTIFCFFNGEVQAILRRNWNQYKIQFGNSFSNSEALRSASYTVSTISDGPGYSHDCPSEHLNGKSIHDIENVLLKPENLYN
# T1 sequence (O60896 24-148): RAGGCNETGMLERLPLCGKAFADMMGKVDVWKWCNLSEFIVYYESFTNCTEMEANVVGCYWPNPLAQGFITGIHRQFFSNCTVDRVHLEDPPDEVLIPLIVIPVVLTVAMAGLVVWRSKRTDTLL
row,SMILES,IC50
1,"CNCc1ccccc1CN(CC(=O)Nc1ccc2c(c1)CC1(C2)C(=O)Nc2ncccc21)C(=O)C1(C)CCN(CC(=O)O)CC1 (centres unmarked) [Example 45, 2-(4-Methyl-4-((2-((methylamino)methyl)benzyl)(2-oxo-2-((2′-oxo-1,1′,2′,3-tetrahydrospiro[indene-2,3′-pyrrolo[2,3-b]pyridin]-5-yl)amino)ethyl)carbamoyl)piperidin-1-yl)acetic Acid]",2.34 nM
2,"CNCc1ccccc1CN(CC(=O)Nc1ccc2c(c1)C[C@@]1(C2)C(=O)Nc2ncccc21)C(=O)C1(C)CCN(Cc2ccc(C(=O)O)cc2)CC1 [Example 46, (R)-4-[[4-Methyl-4-[[2-(methylaminomethyl)phenyl]methyl-[2-oxo-2-[[(3R)-2-oxospiro[1H-pyrrolo[2,3-b]pyridine-3,2′-indane]-5′-yl]amino]ethyl]carbamoyl]-1-piperidyl]methyl]benzoic Acid]",25.7 nM
3,"CNCc1ccccc1CN(CC(=O)Nc1ccc2c(c1)C[C@@]1(C2)C(=O)Nc2ncccc21)C(=O)C1(C)CCN(Cc2cccc(C(=O)O)c2)CC1 [Example 47, (R)-3-((4-Methyl-4-((2-((methylamino)methyl)benzyl)(2-oxo-2-((2′-oxo-1,1′,2′,3-tetrahydrospiro[indene-2,3′-pyrrolo[2,3-b]pyridin]-5-yl)amino)ethyl)carbamoyl)piperidin-1-yl)methyl)benzoic Acid]",5.01 nM
4,"CNCc1ccccc1CN(CC(=O)Nc1ccc2c(c1)C[C@@]1(C2)C(=O)Nc2ncccc21)C(=O)C1(C)CCN(CC2CCNCC2)CC1 [Example 49, (R)-4-Methyl-N-(2-((methylamino)methyl)benzyl)-N-(2-oxo-2-((2′-oxo-1,1′,2′,3-tetrahydrospiro[indene-2,3′-pyrrolo[2,3-b]pyridin]-5-yl)amino)ethyl)-1-(piperidin-4-ylmethyl)piperidine-4-carboxamide]",1.55 nM
5,"CNCc1ccccc1CN(CC(=O)Nc1ccc2c(c1)C[C@@]1(C2)C(=O)Nc2ncccc21)C(=O)C1(C)CCN(Cc2ccncc2)CC1 [Example 50, (R)-4-Methyl-N-(2-((methylamino)methyl)benzyl)-N-(2-oxo-2-((2′-oxo-1,1′,2′,3-tetrahydrospiro[indene-2,3′-pyrrolo[2,3-b]pyridin]-5-yl)amino)ethyl)-1-(pyridin-4-ylmethyl)piperidine-4-carboxamide]",2.19 nM
6,"CNCc1ccccc1CN(CC(=O)Nc1ccc2c(c1)CC1(C2)C(=O)Nc2ncccc21)C(=O)C1(C)CCN(C(=O)N2CCCC2)CC1 (centres unmarked) [Example 51, 4-Methyl-N-[[2-(methylaminomethyl)phenyl]methyl]-N-[2-oxo-2-[(2-oxospiro[1H-pyrrolo[2,3-b]pyridine-3,2′-indane]-5′-yl)amino]ethyl]-1-(pyrrolidine-1-carbonyl)piperidine-4-carboxamide]",2.34 nM
7,"CNCc1ccccc1CN(CC(=O)Nc1ccc2c(c1)C[C@@]1(C2)C(=O)Nc2ncccc21)C(=O)C1(C)CCN(C(=O)N(C)C)CC1 [Example 53, (R)—N1,N1,4-Trimethyl-N4-(2-((methylamino)methyl)benzyl)-N4-(2-oxo-2-((2′-oxo-1,1′,2′,3-tetrahydrospiro[indene-2,3′-pyrrolo[2,3-b]pyridin]-5-yl)amino)ethyl)piperidine-1,4-dicarboxamide]",14.1 nM
8,"CNCc1ccccc1CN(CC(=O)Nc1ccc2c(c1)C[C@@]1(C2)C(=O)Nc2ncccc21)C(=O)C1(C)CCN(C(=O)N2CCC2)CC1 [Example 54, (R)-1-(Azetidine-1-carbonyl)-4-methyl-N-(2-((methylamino)methyl)benzyl)-N-(2-oxo-2-((2′-oxo-1,1′,2′,3-tetrahydrospiro[indene-2,3′-pyrrolo[2,3-b]pyridin]-5-yl)amino)ethyl)piperidine-4-carboxamide]",3.8 nM
9,"CNCc1ccccc1CN(CC(=O)Nc1ccc2c(c1)C[C@@]1(C2)C(=O)Nc2ncccc21)C(=O)C1(C)CCN(C(=O)N2CCNCC2)CC1 [Example 56, (R)-4-Methyl-N-(2-((methylamino)methyl)benzyl)-N-(2-oxo-2-((2′-oxo-1,1′,2′,3-tetrahydrospiro[indene-2,3′-pyrrolo[2,3-b]pyridin]-5-yl)amino)ethyl)-1-(piperazine-1-carbonyl)piperidine-4-carboxamide]",13.2 nM
10,"CNCc1ccccc1CN(CC(=O)Nc1ccc2c(c1)C[C@@]1(C2)C(=O)Nc2ncccc21)C(=O)C1(C)CCN(C(=O)N2CCCC2)CC1 [Example 57, (R)-4-Methyl-N-(2-((methylamino)methyl)benzyl)-N-(2-oxo-2-((2′-oxo-1,1′,2′,3-tetrahydrospiro[indene-2,3′-pyrrolo[2,3-b]pyridin]-5-yl)amino)ethyl)-1-(pyrrolidine-1-carbonyl)piperidine-4-carboxamide]",3.63 nM
11,"CNCc1ccccc1CN(CC(=O)Nc1ccc2c(c1)C[C@@]1(C2)C(=O)Nc2ncccc21)C(=O)C1(C)CCN(C(C)=N)CC1 [Example 58, (R)-1-(1-Iminoethyl)-4-methyl-N-(2-((methylamino)methyl)benzyl)-N-(2-oxo-2-((2′-oxo-1,1′,2′,3-tetrahydrospiro[indene-2,3′-pyrrolo[2,3-b]pyridin]-5-yl)amino)ethyl)piperidine-4-carboxamide]",2.34 nM
12,"CNCc1ccccc1CN(CC(=O)Nc1ccc2c(c1)C[C@@]1(C2)C(=O)Nc2ncccc21)C(=O)C1(C)CCN(c2cccnn2)CC1 [Example 59, (R)-4-Methyl-N-(2-((methylamino)methyl)benzyl)-N-(2-oxo-2-((2′-oxo-1,1′,2′,3-tetrahydrospiro[indene-2,3′-pyrrolo[2,3-b]pyridin]-5-yl)amino)ethyl)-1-(pyridazin-3-yl)piperidine-4-carboxamide]",49 nM
13,CNCc1ccccc1CN(CC(=O)Nc1ccc2c(c1)C[C@@]1(C2)C(=O)Nc2ncccc21)C(=O)C1(C)CCN(c2ncccn2)CC1 [Example 60],38 nM
14,CNCc1ccccc1CN(CC(=O)Nc1ccc2c(c1)C[C@@]1(C2)C(=O)Nc2ncccc21)C(=O)C1(C)CCN(c2ccncn2)CC1 [Example 61],2.14 nM
15,CNCc1ccccc1CN(CC(=O)Nc1ccc2c(c1)C[C@@]1(C2)C(=O)Nc2ncccc21)C(=O)C1(C)CCN(c2ccccn2)CC1 [Example 62],77.6 nM
16,"CNCc1ccccc1CN(CC(=O)Nc1ccc2c(c1)C[C@@]1(C2)C(=O)Nc2ncccc21)C(=O)C1(C)CCN(c2ccccc2)CC1 [Example 63, (R)-4-Methyl-N-(2-((methylamino)methyl)benzyl)-N-(2-oxo-2-((2′-oxo-1,1′,2′,3-tetrahydrospiro[indene-2,3′-pyrrolo[2,3-b]pyridin]-5-yl)amino)ethyl)-1-phenylpiperidine-4-carboxamide]",14.5 nM
17,"CNCc1ccccc1CN(C(=O)C1(C)CCN(C(C)=O)CC1)[C@@H](C)C(=O)Nc1ccc2c(c1)C[C@@]1(C2)C(=O)Nc2ncccc21 [Example 66, 1-Acetyl-4-methyl-N-(2-((methylamino)methyl)benzyl)-N—((S)-1-oxo-1-(((R)-2′-oxo-1,1′,2′,3-tetrahydrospiro[indene-2,3′-pyrrolo[2,3-b]pyridin]-5-yl)amino)propan-2-yl)piperidine-4-carboxamide]",457 nM
18,"CCC1(C(=O)N(CC(=O)Nc2ccc3c(c2)C[C@@]2(C3)C(=O)Nc3ncccc32)Cc2ccccc2CNC)CCNCC1 [Example 67, (R)-4-Ethyl-N-(2-((methylamino)methyl)benzyl)-N-(2-oxo-2-((2′-oxo-1,1′,2′,3-tetrahydrospiro[indene-2,3′-pyrrolo[2,3-b]pyridin]-5-yl)amino)ethyl)piperidine-4-carboxamide]",0.575 nM
19,"CCC1(C(=O)N(CC(=O)Nc2ccc3c(c2)C[C@@]2(C3)C(=O)Nc3ncccc32)Cc2ccccc2CNC)CCN(C(C)=O)CC1 [Example 68, (R)-1-Acetyl-4-ethyl-N-(2-((methylamino)methyl)benzyl)-N-(2-oxo-2-((2′-oxo-1,1′,2′,3-tetrahydrospiro[indene-2,3′-pyrrolo[2,3-b]pyridin]-5-yl)amino)ethyl)piperidine-4-carboxamide]",1.41 nM
20,"CCC1(C(=O)N(CC(=O)Nc2ccc3c(c2)C[C@@]2(C3)C(=O)Nc3ncccc32)Cc2ccccc2CNC)CCN(C(=O)C(C)(C)C)CC1 [Example 69, 1-(2,2-Dimethylpropanoyl)-4-ethyl-N-[[2-(methylaminomethyl)phenyl]methyl]-N-[2-oxo-2-[[(3R)-2-oxospiro[1H-pyrrolo[2,3-b]pyridine-3,2′-indane]-5′-yl]amino]ethyl]piperidine-4-carboxamide]",30.2 nM
21,"CCC1(C(=O)N(CC(=O)Nc2ccc3c(c2)C[C@@]2(C3)C(=O)Nc3ncccc32)Cc2ccccc2CNC)CCN(C(=O)c2ccn(C)n2)CC1 [Example 70, (R)-4-Ethyl-1-(1-methyl-1H-pyrazole-3-carbonyl)-N-(2-((methylamino)methyl)benzyl)-N-(2-oxo-2-((2′-oxo-1,1′,2′,3-tetrahydrospiro[indene-2,3′-pyrrolo[2,3-b]pyridin]-5-yl)amino)ethyl)piperidine-4-carboxamide]",2.24 nM
22,"CCC1(C(=O)N(CC(=O)Nc2ccc3c(c2)C[C@@]2(C3)C(=O)Nc3ncccc32)Cc2ccccc2CNC)CCN(C(=O)c2cc(C)n[nH]2)CC1 [Example 71, (R)-4-Ethyl-1-(3-methyl-1H-pyrazole-5-carbonyl)-N-(2-((methylamino)methyl)benzyl)-N-(2-oxo-2-((2′-oxo-1,1′,2′,3-tetrahydrospiro[indene-2,3′-pyrrolo[2,3-b]pyridin]-5-yl)amino)ethyl)piperidine-4-carboxamide]",8.51 nM
23,"CCC1(C(=O)N(CC(=O)Nc2ccc3c(c2)C[C@@]2(C3)C(=O)Nc3ncccc32)Cc2ccccc2CNC)CCN(C(=O)C2CC2)CC1 [Example 72, (R)-1-(Cyclopropanecarbonyl)-4-ethyl-N-(2-((methylamino)methyl)benzyl)-N-(2-oxo-2-((2′-oxo-1,1′,2′,3-tetrahydrospiro[indene-2,3′-pyrrolo[2,3-b]pyridin]-5-yl)amino)ethyl)piperidine-4-carboxamide]",8.71 nM
